This note sets out measurements from PubChem BioAssay AID248 (DTP/NCI, 2004).

Several values for one entry are separate records, joined by “and”; a condition that tells them apart may be missing. Equal entries are not always repeated. Toxic doses and inconclusive results are not listed.

The test system of this test is L1210 leukemia ip in BDF1 mice, survival T/C. The test can be described thus: NCI In Vivo Anticancer Drug Screen. Data for tumor model L1210 Leukemia (intraperitoneal) in B6D2F1 (BDF1) mice. To be noted: endpoint: mean survival time, higher = longer survival. The method, boiled down: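 Read-out is survival time, reported as the treated-group measurement over the vehicle-control measurement.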

Where [1] appears, read: dose: 100.0 mg/kg/injection, schedule: Q01DX009 (ip), vehicle: saline.
Setting [2] is: dose: 100.0 mg/kg/injection, schedule: Q04DX003 (ip), vehicle: saline with Tween-80.
[3] abbreviates: dose: 200.0 mg/kg/injection, schedule: Q04DX003 (ip), vehicle: saline with Tween-80.
[4] abbreviates: dose: 400.0 mg/kg/injection, schedule: Q04DX003 (ip), vehicle: saline with Tween-80.
[5] abbreviates: dose: 100.0 mg/kg/injection, schedule: Q04DX003 (ip), vehicle: Klucel (hydroxypropylcellulose) (HPC).
[6] abbreviates: dose: 200.0 mg/kg/injection, schedule: Q04DX003 (ip), vehicle: Klucel (hydroxypropylcellulose) (HPC).
Setting [7] is: dose: 400.0 mg/kg/injection, schedule: Q04DX003 (ip), vehicle: Klucel (hydroxypropylcellulose) (HPC).
Setting [8] is: dose: 100.0 mg/kg/injection, schedule: Q01DX009 (ip), vehicle: Klucel (hydroxypropylcellulose) (HPC).
[9] abbreviates: dose: 200.0 mg/kg/injection, schedule: Q01DX009 (ip), vehicle: Klucel (hydroxypropylcellulose) (HPC).
Where [10] appears, read: dose: 400.0 mg/kg/injection, schedule: Q01DX009 (ip), vehicle: Klucel (hydroxypropylcellulose) (HPC).
Setting [11] is: dose: 100.0 mg/kg/injection, schedule: Q04DX003 (ip), vehicle: saline.
[12] abbreviates: dose: 100.0 mg/kg/injection, schedule: Q04DX002 (ip), vehicle: Klucel (hydroxypropylcellulose) (HPC).
The mark [13] stands for this setting: dose: 200.0 mg/kg/injection, schedule: Q04DX002 (ip), vehicle: Klucel (hydroxypropylcellulose) (HPC).
Setting [14] is: dose: 400.0 mg/kg/injection, schedule: Q04DX002 (ip), vehicle: Klucel (hydroxypropylcellulose) (HPC).

Turning to `O=C(O)C1C(C(=O)O)C2(Cl)C(Cl)=C(Cl)C1(Cl)C2(Cl)Cl.[Co]` (stereo unspecified), the T/C is, setting by setting: (dose: 12.5 mg/kg/injection, schedule: Q01DX009 (ip), vehicle: saline) 116 % of control; (dose: 25.0 mg/kg/injection, schedule: Q01DX009 (ip), vehicle: saline sonified) 112 % of control; (dose: 25.0 mg/kg/injection, schedule: Q01DX009 (ip), vehicle: saline) 110 % of control; (dose: 33.0 mg/kg/injection, schedule: Q01DX009 (ip), vehicle: saline sonified) 108 % of control; (dose: 50.0 mg/kg/injection, schedule: Q01DX001 (ip), vehicle: Klucel (hydroxypropylcellulose) (HPC)) 98 % of control; (dose: 50.0 mg/kg/injection, schedule: Q01DX009 (ip), vehicle: saline) 115 % of control. In addition, the T/C by setting is: (dose: 75.0 mg/kg/injection, schedule: Q01DX009 (ip), vehicle: saline sonified) 112 % of control; (dose: 100.0 mg/kg/injection, schedule: Q01DX001 (ip), vehicle: Klucel (hydroxypropylcellulose) (HPC)) 110 % of control; under setting [1], 124 % of control; (dose: 200.0 mg/kg/injection, schedule: Q01DX001 (ip), vehicle: Klucel (hydroxypropylcellulose) (HPC)) 106 % of control.
As for `CCN(CC)C(=O)Cn1ccc(O)cc1=O`, the T/C by setting is: under setting [2], 109 % of control; under setting [3], 98 % of control; under setting [4], 104 % of control.
In the case of `CS(=O)(=O)OCCN(CCOS(C)(=O)=O)c1ccc(C=Nc2ccc3ccccc3c2)cc1`, the T/C by setting is: (dose: 20.0 mg/kg/injection, schedule: Q04DX003 (ip), vehicle: Klucel (hydroxypropylcellulose) (HPC)) 110 % of control; (dose: 40.0 mg/kg/injection, schedule: Q04DX003 (ip), vehicle: Klucel (hydroxypropylcellulose) (HPC)) 117 % of control; (dose: 53.3 mg/kg/injection, schedule: Q04DX003 (ip), vehicle: Klucel (hydroxypropylcellulose) (HPC)) 152 % of control; under setting [5], 120 % of control; (dose: 120.0 mg/kg/injection, schedule: Q04DX003 (ip), vehicle: Klucel (hydroxypropylcellulose) (HPC)) 95 % of control and 100 % of control.
On to `Cc1ccc(O)c(S(=O)(=O)F)c1`, for which the T/C reads like this: under setting [5], 104 % of control; under setting [6], 102 % of control; under setting [7], 102 % of control.
For the compound `COc1ccc(COC(=O)Nc2ccc(Cl)c(Cl)c2)cc1OC`, the T/C is 95 % of control under setting [8]; 101 % of control under setting [5]; 88 % of control under setting [9]; 106 % of control under setting [6]; 95 % of control under setting [10]; 90 % of control under setting [7].
On to `N=C(N)SCCCN`, for which the T/C under setting [1] is 108 % of control; the T/C under setting [11] is 101 % of control; the T/C (dose: 200.0 mg/kg/injection, schedule: Q04DX003 (ip), vehicle: saline) was 100 % of control.
Consider `CCOC(=O)C(C)Oc1cccc(O)c1[N+](=O)[O-]` (stereo unspecified), for which the T/C is 95 % of control (dose: 100.0 mg/kg/injection, schedule: Q01DX001 (ip), vehicle: saline with Tween-80); 97 % of control (dose: 200.0 mg/kg/injection, schedule: Q01DX001 (ip), vehicle: saline with Tween-80); 90 % of control (dose: 400.0 mg/kg/injection, schedule: Q01DX001 (ip), vehicle: saline with Tween-80).
As for `On1ccc(N2CCOCC2)cc1=Nc1ccccc1`, the T/C (dose: 100.0 mg/kg/injection, schedule: Q01DX001 (ip), vehicle: saline) was 96 % of control.
As for `CN1CSC(=S)N(C)C1`, the T/C by setting is: (dose: 25.0 mg/kg/injection, schedule: Q04DX003 (ip), vehicle: Klucel (hydroxypropylcellulose) (HPC)) 95 % of control; (dose: 50.0 mg/kg/injection, schedule: Q04DX003 (ip), vehicle: Klucel (hydroxypropylcellulose) (HPC)) 95 % of control; under setting [5], 95 % of control and 101 % of control.
Regarding `CCC(CC)(Cc1ccccc1)C(=O)NC(=O)NO`, the T/C is, setting by setting: (dose: 25.0 mg/kg/injection, schedule: Q01DX Z (ip), vehicle: methylcellulose (MC)) 98 % of control; (dose: 50.0 mg/kg/injection, schedule: Q01DX Z (ip), vehicle: methylcellulose (MC)) 101 % of control; (dose: 100.0 mg/kg/injection, schedule: Q01DX Z (ip), vehicle: methylcellulose (MC)) 98 % of control.
Consider `CC1CC2=C(CCCO2)C(C)C1` (stereo unspecified), for which, where the note is “dose: 200.0 mg/kg/injection, schedule: Q01DX001 (ip), vehicle: saline”, the T/C was 95 % of control.
Regarding `CN1CCCCC1c1ccccc1` (stereo unspecified), under “dose: 75.0 mg/kg/injection, schedule: Q01DX001 (ip), vehicle: saline”, the T/C is 103 % of control.
Consider `CCOc1ccc([N+](=O)[O-])cn1`, for which the T/C was 101 % of control under setting [8]; 93 % of control under setting [5]; 102 % of control under setting [9]; 104 % of control under setting [6]; 106 % of control under setting [10]; 93 % of control under setting [7].
Regarding `O=C1c2ccccc2S(=O)(=O)N1CCN1C(=O)c2ccccc2S1(=O)=O`, the T/C runs as follows: under setting [5], 94 % of control; under setting [6], 93 % of control; under setting [7], 94 % of control.
Turning to `Cc1cc(C)nc(NN=C2CC(C)(C)N(O)C(C)(C)C2)n1`, the T/C (dose: 25.0 mg/kg/injection, schedule: Q04DX003 (ip), vehicle: saline) was 96 % of control; the T/C (dose: 50.0 mg/kg/injection, schedule: Q04DX003 (ip), vehicle: saline) was 98 % of control; the T/C under setting [11] was 102 % of control.
With `CCn1c2ccccc2c2cc(NC(=O)N(CCCl)N=O)ccc21`, the T/C was 121 % of control (dose: 177.0 mg/kg/injection, schedule: Q01DX009 (ip), vehicle: carboxymethylcellulose (CMC)) and 188 % of control (dose: 266.0 mg/kg/injection, schedule: Q01DX009 (ip), vehicle: carboxymethylcellulose (CMC)).
As to `CN(C)C(=O)c1ccc(NC(=O)N(CCCl)N=O)cc1`, the T/C is, setting by setting: (dose: 0.5 mg/kg/injection, schedule: Q01DX001 (ip), vehicle: other) 102 % of control; (dose: 1.0 mg/kg/injection, schedule: Q01DX001 (ip), vehicle: other) 120 % of control; (dose: 2.0 mg/kg/injection, schedule: Q01DX001 (ip), vehicle: other) 150 % of control; (dose: 8.0 mg/kg/injection, schedule: Q01DX001 (ip), vehicle: other) 182 % of control; (dose: 16.0 mg/kg/injection, schedule: Q01DX001 (ip), vehicle: other) 286 % of control; (dose: 31.0 mg/kg/injection, schedule: Q01DX001 (ip), vehicle: other) 88 % of control.
On to `C(=C/c1ccccn1)/c1ccccc1`, for which the T/C runs as follows: under setting [12], 100 % of control; under setting [13], 103 % of control; under setting [14], 122 % of control.
Consider `c1cc[c]([Pb]([c]2ccccc2)([c]2ccccc2)[c]2ccccc2)cc1`, for which the T/C was 103 % of control (dose: 50.0 mg/kg/injection, schedule: Q04DX002 (ip), vehicle: Klucel (hydroxypropylcellulose) (HPC)); 103 % of control under setting [12]; 113 % of control and 115 % of control under setting [13]; 101 % of control under setting [14].
With `CC(C)(C)C(=O)Nc1ccc(Cl)cc1C(=O)c1ccccc1`, the T/C by setting is: (dose: 100.0 mg/kg/injection, schedule: Q01DX009 (ip), vehicle: saline with Tween-80) 92 % of control and 110 % of control; (dose: 100.0 mg/kg/injection, schedule: Q04DX002 (ip), vehicle: saline with Tween-80) 93 % of control and 98 % of control; (dose: 200.0 mg/kg/injection, schedule: Q01DX009 (ip), vehicle: saline with Tween-80) 96 % of control and 100 % of control; (dose: 200.0 mg/kg/injection, schedule: Q04DX002 (ip), vehicle: saline with Tween-80) 93 % of control and 107 % of control; (dose: 400.0 mg/kg/injection, schedule: Q01DX009 (ip), vehicle: saline with Tween-80) 92 % of control and 95 % of control; (dose: 400.0 mg/kg/injection, schedule: Q04DX002 (ip), vehicle: saline with Tween-80) 107 % of control and 87 % of control.
With `O=C(CCNC(=O)OCc1ccccc1)NC(Cc1ccccc1)C(=O)OCc1ccccc1` (stereo unspecified), the T/C runs as follows: under setting [2], 103 % of control; under setting [3], 97 % of control; under setting [4], 95 % of control.
Take `CSc1ncc(CO)c(Nc2ccccc2Cl)n1`: the T/C by setting is: under setting [5], 103 % of control; under setting [6], 103 % of control; under setting [7], 95 % of control.
